Laboratory results published in ChEMBL document CHEMBL1949607, “p-Terphenyl and diterpenoid metabolites from endophytic Aspergillus sp. YXf3” (J Nat Prod, 2012).

Test: Inhibition of viral neuraminidase after 20 mins by fluorescence assay

| SMILES | IC50 |
| --- | --- |
| COc1cc(-c2ccccc2)c(OC)c(O)c1-c1ccc(O)c(O)c1 | > 30 µM |
| COc1cc(-c2ccccc2)c(OC)c(O)c1-c1ccc(O)cc1 | 4.34 µM |
| COc1cc(-c2ccc(O)cc2)c(OC)c(O)c1-c1ccc(O)c(O)c1 | 9.17 µM |
| CCOC(=O)C1=C[C@@H](OC(CC)CC)[C@H](NC(C)=O)[C@@H](N)C1 [OSELTAMIVIR] | 0.14 µM |
| COc1c(-c2ccccc2)cc(OC)c2c1oc1cc(O)c(O)cc12 | 9.05 µM |
| COc1ccc(-c2cc(OC)c3c(oc4cc(O)c(O)cc43)c2OC)cc1 [CANDIDUSIN C] | > 30 µM |
| COc1c(-c2ccc(O)cc2)cc(O)c(-c2ccc(O)cc2)c1O | > 30 µM |
| COc1c(-c2ccccc2)cc(O)c(-c2ccc(O)cc2)c1O | > 30 µM |
| COc1c(-c2ccc(O)cc2)cc(OC)c2c1oc1cc(O)c(O)cc12 [CANDIDUSIN A] | > 30 µM |
| COc1cc(-c2ccc(O)cc2)c(OC)c(O)c1-c1ccc(O)cc1 [TERPHENYLLIN] | > 30 µM |

More lines, now with the values ahead:

| IC50 | SMILES |
| --- | --- |
| > 30 µM | CO[C@]12OC[C@@H](O)c3c(C)ccc(c31)C1=C(C2=O)C(C)(C)CCC1 (racemic) |
| > 30 µM | C=C[C@@]1(C)CC[C@H]2C(=C[C@H](O)[C@H]3C(C)(C)CC[C@@H](O)[C@]23C)[C@H]1O (relative stereo) |
| > 30 µM | COc1cc2oc3c(OC)c(-c4ccc(O)cc4)cc(OC)c3c2cc1OC |
| 5.79 µM | COc1cc(-c2ccc(O)cc2)c(OC)c(O)c1C1=CC(=O)OC1CC(=O)O (stereo unspecified) [TERPHENOLIDE] |
| > 30 µM | C=Cc1c(C)ccc2c1C(=O)[C@H](O)[C@H]1C(C)(C)CC[C@@H](O)[C@]21C [ASPERGILOID C] |
| > 30 µM | CO[C@@H]1CO[C@]2(OC)C(=O)C3=C(CCCC3(C)C)c3ccc(C)c1c32 (racemic) |
